These results are taken from article PMC6829886, “Inhibition of Non-Small Cell Lung Cancer Cells by Oxy210, an Oxysterol-Derivative that Antagonizes TGFβ and Hedgehog Signaling” (Cells, 2019).

For series [1], the system named is TGFβ induced activity of SBE-luciferase reporter. Kind of series: SBE-luciferase (Smad response-element) reporter assay in NIH3T3-E1 cells. It counts as cell-based, mouse. The conditions noted are these: 48 hrs. (In a reporter assay the amount or activity of a reporter protein is the signal.)
Experimental: NIH3T3-E1 cells cultured in 24 well-plates at 90% confluence were transiently transfected with 0.1 μg of Smad response-element reporter (SBE-Luciferase) plasmid (Qiagen), or with 0.1 μg of Gli response-element reporter (pGL3b-8xGli-Luciferase) plasmid, and 10 ng of pSV40-Renilla-Luciferase plasmid (Promega, Madison, WI, USA) with or without co-transfection with 10ng of Gli1 overexpression vector, pSRα-Gli1 using a Lipofectamine LTX Plus transfection reagent, as previously described [23]. […] 6 hrs after transfection, cells were treated with test agents for 72 h. […] Twenty-four hours after transfection, cells were treated with test agents for 20 h. Then the firefly and Renilla luciferase activities were measured using a dual luciferase kit (Promega) and a GloMax-96 Microplate Luminometer (Promega) or a plate reader-SpectraMax iD3 (Molecular Devices, San Jose, CA, USA). The firefly luciferase activities were normalized to the Renilla luciferase activities.
Series [2] concerns A549 cells. Also on record: method as in PMID 15967103. As to conditions: consistent with own observations; cited from earlier work.
Series [3] relates to A549 cells. Kind of series: Cell counting (proliferation) assay in A549 cells. It counts as cell-based, human. The conditions noted are these: A549 cells, CP alone. As for the experimental part:
A549 and H2030 cells cultured in RPMI 1640 containing 5% FBS in 12 well-plates at 20% confluence were treated with Oxy210 for 6 days and then trypsinized, spun down and resuspended in fresh medium. For the Carboplatin (CP) and Oxy210 co-treatment experiments, A549 cells cultured in RPMI 1640 containing 2% FBS in 12 well-plates at 20% confluence were treated with CP at different concentrations in the presence or absence of Oxy210 for 6 days. For the TGFβ-induced drug resistance assay, A549 cells cultured in RPMI 1640 containing 2% FBS in 12 well-plates at 10% confluence were pre-treated with TGFβ1 alone or together with Oxy210 for 3 days, and then treated with 20 μM CP for 4 days. An aliquot of cell suspension was applied to a hemocytometer and the cells were then counted under a light microscope.
Statistical analyses were performed using the StatView 5 program (SAS Institute, Cary, NC, USA). All p values were calculated using ANOVA and Fisher’s projected least significant difference (PLSD) significance test. A value of p < 0.05 was considered significant. The IC 50 dose-response curves shown in Figure 4b and Figure 7a–c were modeled using a five-parameter logistic model. This model allows for asymmetric curves and automatically estimates the mean maximum and minimum response. Based on this model, IC 50 values were estimated corresponding to the dose halfway between min and max response. Models of dose versus response and dose versus log response were also evaluated (see Supplementary Materials). The R square statistic was computed as a measure of model fit.
Figure 7 Inhibition of NSCLC cell proliferation by Oxy210. A549 (a), (c) and H2030 (b) cells were treated with the test agents as indicated in RPMI 1640 containing 5% FBS for 5 days and then were trypsinized and counted as described in Methods and Materials section. Data from a representative experiment are reported as the mean of triplicate determinations ± SD (* p < 0.05 vs. control; ** p < 0.01 vs. control).

In a further series the target is T1, Human TGFBR2 (Homo sapiens, UniProt P37173).
T1 construct: Human TGFBR2 (amino acid 188-end); purchased Eurofins
T1 sequence (P37173 188-567 limits assumed): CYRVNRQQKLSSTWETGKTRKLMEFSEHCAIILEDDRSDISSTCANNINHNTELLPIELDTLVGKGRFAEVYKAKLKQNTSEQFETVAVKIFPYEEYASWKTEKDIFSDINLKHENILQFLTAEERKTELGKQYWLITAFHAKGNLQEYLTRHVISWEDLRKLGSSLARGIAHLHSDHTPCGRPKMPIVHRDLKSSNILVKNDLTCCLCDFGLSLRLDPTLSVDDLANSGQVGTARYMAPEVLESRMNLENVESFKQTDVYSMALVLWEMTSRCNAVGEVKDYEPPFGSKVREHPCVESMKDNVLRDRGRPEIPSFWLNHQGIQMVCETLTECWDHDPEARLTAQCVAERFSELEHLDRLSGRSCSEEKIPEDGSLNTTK
The series can be described thus: TGFβ receptor II kinase inhibition assay (Eurofins). It counts as biochemical. As to conditions: vs. positive controls Cdk1/2 Inhibitor III and PKR Inhibitor. How it is done: (§1) Effect of Oxy210 on inhibition of TGFβ receptors I and II kinase activity was assessed by Eurofins (Celle-L’Evescault, France). TGFBR1 (h): Human TGFBR1 (amino acid 200 to end) was incubated with 8 mM MOPS pH 7.0, 0.2 mM EDTA, 1 mM MnCl2, 2 mg/mL casein, 10 mM Magnesium acetate and […] (specific activity and concentration as required). The reaction was initiated by the addition of the Mg/ATP mix. After incubation for 40 min at room temperature, the reaction was stopped by the addition of phosphoric acid to a concentration of 0.5%. 10 μL of the reaction was then spotted onto a P30 filtermat and washed four times for 4 min in 0.425% phosphoric acid and once in methanol prior to drying and scintillation counting. TGFBR2 (h): Human TGFBR2 (amino acid 188-end) was incubated with 20 mM Tris/HCl pH 8.5, 0.2 mM EDTA, 0.33 mg/mL MBP, 10 mM Magnesium acetate and [9-33P-ATP] (specific activity and concentration as required). The reaction was initiated by the addition of the Mg/ATP mix. After incubation for 120 min at room temperature, the reaction was stopped by the addition of phosphoric acid to a concentration of 0.5%. […]
(§2) Figure 11 Inhibition of TGFβ-induced Smad2/3 phosphorylation and transcriptional activity. […] Luciferase activity was measured and normalized to the Renilla luciferase activity. […]

In another series the target is T2, Human TGFBR1 (Homo sapiens, UniProt P36897).
T2 construct: Human TGFBR1 (amino acid 200 to end); purchased Eurofins
T2 sequence (P36897 200-503 limits assumed): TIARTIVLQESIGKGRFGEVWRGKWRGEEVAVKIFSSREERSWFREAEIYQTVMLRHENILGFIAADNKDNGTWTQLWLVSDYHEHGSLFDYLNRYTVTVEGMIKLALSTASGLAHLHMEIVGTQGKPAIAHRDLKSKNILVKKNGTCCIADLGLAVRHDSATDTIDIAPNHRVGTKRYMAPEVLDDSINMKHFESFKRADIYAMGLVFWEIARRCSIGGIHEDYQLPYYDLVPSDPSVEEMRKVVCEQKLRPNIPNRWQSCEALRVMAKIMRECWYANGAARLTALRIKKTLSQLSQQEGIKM
The series can be described thus: TGFβ receptor I kinase inhibition assay (Eurofins). It counts as biochemical. The conditions noted are these: vs. positive controls Cdk1/2 Inhibitor III and PKR Inhibitor. As for the experimental part:
as §1, §2

Series [4] deals with TGFβ signaling in NIH3T3-E1 cells. Kind of series: TGFβ target gene expression (Q-RT-PCR) in NIH3T3 cells. It counts as cell-based, mouse. As to conditions: for expression of CTGF induced by TGFβ: NIH3T3 cells, TGFβ 20 ng/mL, 48 h (Figure 4e); for TGFβ inhibitory properties: statement in Discussion. As for the experimental part: Total RNA was extracted with the RNeasy Plus Mini Kit from Qiagen (Hilden, Germany) according to the manufacturer’s instructions. One microgram of RNA was reverse-transcribed using an iScript Reverse Transcription Supermix from Bio-Rad Laboratories (Hercules, CA, USA) to make single-stranded cDNA. The cDNAs were then mixed with Qi SYBR Green Supermix (Bio-Rad) for quantitative RT-PCR assay using a Bio-Rad I-cycler IQ quantitative thermocycler. All PCR samples were prepared in triplicate wells in a 96-well plate. After 40 cycles of PCR, melt curves were examined in order to ensure primer specificity. Fold changes in gene expression were calculated using the ΔΔCt method. Primers used for mouse were as follows: Oaz1 (5′-CCACTGCTTCGCCAGAGAG-3′) and (5′-CCCGGACCCAGGTTACTA-3′), Gli1 (5′- […]-3′ and 5′- GCT GATCCAGCCTAAGGTTCTC-3′), Ptch1 (5′-CCATCGGCGACAAGAACC-3′ and 5′-[…]-3′), Thbs1 (5′-[…]-3′ and 5′-CGGGGATCAGGTTGGCATT-3′), Cryab (5′-[…]-3′ and 5′-[…]-3′), Egr2 (5′-[…]-3′ and 5′-[…]-3′), CTGF (5′-GGGCCTCTTCTGCGATTTC-3′ and 5′-[…]-3′).
Figure 4 Inhibition of ligand-induced Hedgehog and TGFβ signaling in mouse fibroblast cells. NIH3T3 cells were pretreated for 2 h with Oxy210 or various inhibitors as indicated in DMEM containing 5% FBS. Next, cells were treated with CAPAN-1 conditioned medium (CM) in the absence or presence of oxysterols or inhibitors. After 72 h, RNA was extracted and analyzed by Q-RT-PCR for the expression of Hh target genes Gli1 and Ptch1 and normalized to Oaz1 expression (a,b). (c,e) NIH3T3 cells were treated in DMEM containing 0.1% BCS overnight and then pretreated for 2 h with the inhibitors as indicated in DMEM containing 0.1%BCS. The cells were then treated with TGFβ (20ng/mL) in the absence or presence of the compounds. After 48 h, RNA was extracted and analyzed by Q-RT-PCR for the expression of TGFβ target genes as indicated and normalized to Oaz1 expression. (d) NIH3T3 cells cultured in 24 well-plates were transfected with a Smad response element reporter (SBE-Luciferase) plasmid and a pTK-Renilla-Luciferase plasmid. 6 hrs after transfection, cells were treated with the test agents as indicated for 48 hrs. Luciferase activity was measured and normalized to the Renilla luciferase activity. Data from a representative experiment are reported as the mean of triplicate determinations ± SD (** p < 0.01 vs. CM (a,b) or TGFβ (c,d and e) treated cells; ## p < 0.01 vs. control).

Series [5] is described as follows: Metabolic stability in human liver microsomes. It counts as in vitro ADME. For orientation: Liver microsomes are vesicles of endoplasmic reticulum, rich in cytochrome P450 enzymes.
A short description of series [6]: Metabolic stability in mouse liver microsomes. It counts as in vitro ADME.
The subject of a further series is Smo. Also on record: method as in PMID 24591126. As to conditions: cited from earlier work.

For `NC(=O)c1ccc(-c2nc(-c3ccc4c(c3)OCO4)c(-c3ccccn3)[nH]2)cc1` [SB431542, reference compound], the “TGFβ induced activity of SBE-luciferase reporter” value in series [1] is listed as “significantly inhibited”. The “effect on proliferation of A549 cells” value in the series on A549 cells [2] is on record as “does not lessen the proliferation of A549 cells”.

As for `[NH2][Pt]1([NH2])[O]C(=O)C2(CCC2)C(=O)[O]1` [CP, Carboplatin, reference compound], the IC10 Estimate, dataset 4.1 - Fig 7c - CP with A549 cells [3] (original scale Y) was 0.66 µM. In addition, in the series on A549 cells [3] (original scale Y, read-out: IC90 Estimate, dataset 4.1 - Fig 7c - CP), the IC90 (usually the concentration at which the effect reaches the 90% level) was 40.7 µM. For the same molecule, the IC50 (in general, the concentration that gives 50% inhibition) with A549 cells [3] (± SE, read-out: IC50 of CP) is 6.72 ± 0.72 µM.

As for `C[C@]12CC[C@H](O)C[C@@H]1CC[C@@H]1[C@@H]2CC[C@@]2(C)[C@H]1CC[C@@H]2[C@](C)(O)CCc1ccc(F)cc1` [Oxy186, reference compound], at Human TGFBR2, the “inhibitory activity on TβRII in functional kinase assay” value is recorded as “did not display significant inhibitory activity”. The “inhibitory activity on TβRI in functional kinase assay” value against Human TGFBR1 is reported as “did not display significant inhibitory activity”. Moreover, in series [4], the “expression of CTGF induced by TGFβ” value was “only Oxy210 robustly inhibited” and the TGFβ inhibitory properties entry was “devoid of TGFβ inhibitory properties”.

With `CS(=O)(=O)c1ccc(C(=O)Nc2ccc(Cl)c(-c3ccccn3)c2)c(Cl)c1` [GDC0449], the “expression of CTGF induced by TGFβ” value in series [4] is “only Oxy210 robustly inhibited”.

For the molecule `CC(C)CC[C@@H](O)[C@](C)(O)[C@H]1CC[C@H]2[C@@H]3CC=C4C[C@@H](O)CC[C@]4(C)[C@H]3CC[C@]12C` [Oxy16, (2R,3R)-2-((3S,8S,9S,10R,13S,14S,17S)-3-hydroxy-10,13-dimethyl-2,3,4,7,8,9,10,11,12,13,14,15,16,17-tetradecahydro-1H-cyclopenta[a]phenanthren-17-yl)-6-methylheptane-2,3-diol, reference compound], the half-life (commonly the time needed for the level to fall by half in the phase considered) in series [5] (human, liver microsomes, read-out: HLM, Half-Life) was below 15 min; in series [6] (read-out: MLM, Half-Life), 14 min. Besides, the fraction remaining (commonly the share of the starting amount still present when the sample was taken) at 1 h stood at 6% in series [5] (read-out: HLM, % Remaining after 60 min) and 5% in series [6] (read-out: MLM, % Remaining after 60 min). Besides, in series [4], the TGFβ inhibitory properties result is given as “devoid of TGFβ inhibitory properties”. Also, the Smo binding affinity entry in the series with Smo is on record as “lack of detectable Smo binding affinity”.
